Measured values published in US7718651B2, “Inhibitors of FtsZ and uses thereof” (priority 2002, dated 2010).
In brackets after ≈: the same amount, converted by molar mass. Where two headings read alike, the source gives them in different places.

How the values were obtained:
M. tuberculosis H37Rv [1] = assay: microbe, parasite or virus in culture; format: cell-based; details: for % Inh / inhibition of growth at 12.5 µg/mL: M. tuberculosis H37Rv; for % Inh: screen concentration 12.5 g/ml [sic], Table 8; for inhibition of growth at 12.5 µg/mL: Mycobacterium tuberculosis, at 12.5% μg/ml (so in the source), read-out: Primary Screen PI (% inhibition of growth); for activity against M. tuberculosis H37Rv in the primary screen: in words
M. tuberculosis H37Rv [2] = assay: MIC99 determination, BACTEC 460 radiometric system; format: cell-based
Vero cells = assay: Cytotoxicity in Vero cells (MTS assay); format: cell-based; details: Chlorocebus sabaeus
M. tuberculosis FtsZ [3] = molecular target: T1, M. tuberculosis FtsZ (Mycobacterium tuberculosis, UniProt P9WN95); assay: biochemical; details: read-out: FtsZ polymerization ID50
M. tuberculosis FtsZ [4] = molecular target: T1, M. tuberculosis FtsZ; assay: biochemical; details: 100 μM compound, Table 6; read-out: M. tuberculosis FtsZ GTP Hydrolysis % Inhibition (100 μM)
bovine tubulin = assay: Light scattering assay for tubulin polymerization; format: biochemical; details: read-out: tubulin polymerization ID50
M. tuberculosis H37Ra = assay: MIC/MBC, colorimetric (alamar blue) microdilution broth assay; format: cell-based; details: Mycobacterium tuberculosis, H37RA, M. tuberculosis H37Ra, positive control; read-out: MIC
[5] = Mycobacterium tuberculosis, M. tuberculosis H37Rv, Table 8, read-out: MIC
[6] = Vero cells, Table 8, read-out: IC50
[7] = Mycobacterium tuberculosis, H37RV
[8] = 72 h, Vero cells, 72 h exposure, Table 3, read-out: IC50
[9] = Mycobacterium tuberculosis, M. tuberculosis H37Rv, Table 3, read-out: Screen 2 MIC99

T1 sequence (P9WN95 whole entry, looked up): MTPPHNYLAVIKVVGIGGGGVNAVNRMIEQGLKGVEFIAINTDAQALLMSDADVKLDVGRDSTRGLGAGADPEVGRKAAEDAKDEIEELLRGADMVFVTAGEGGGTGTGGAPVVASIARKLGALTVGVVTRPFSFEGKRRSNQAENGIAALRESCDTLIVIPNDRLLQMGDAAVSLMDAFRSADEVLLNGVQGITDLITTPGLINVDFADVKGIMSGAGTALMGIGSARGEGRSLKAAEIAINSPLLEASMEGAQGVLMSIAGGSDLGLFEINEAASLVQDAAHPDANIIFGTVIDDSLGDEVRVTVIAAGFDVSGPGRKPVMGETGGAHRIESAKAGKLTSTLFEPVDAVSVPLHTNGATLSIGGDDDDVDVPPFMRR

SMILES | % Inh (M. tuberculosis H37Rv [1]) [%] | MIC (M. tuberculosis H37Rv [2]; [5]) [µg/mL] | IC50 (Vero cells; [6]) [µg/mL] | also measured
CCCCC1=Nc2c(cc(NC(=O)OCC)nc2N)NC1C (centres unmarked) [Compound A41] | 95 | 12.5 (≈ 40.9 µM) | 1.51 (≈ 4.94 µM) | –
C[C@@H]1Nc2cc(NC(=O)OCc3ccccc3)nc(N)c2N=C1c1ccccc1 [Compound A26] | 98 | 12.5 (≈ 32.3 µM) | 1.51 (≈ 3.9 µM) | –
CCOC(=O)Nc1cc2c(c(N)n1)N=C(c1ccccc1)CCN2 [SRI-7614, (1-Amino-8-phenyl-6,7-dihydro-5H-2,5,9-triaza-benzocyclohepten-3-yl)-carbamic acid ethyl ester] | – | – | – | inhibition of growth at 12.5 µg/mL (M. tuberculosis H37Rv [1]): 100%; activity against M. tuberculosis H37Rv in the primary screen (M. tuberculosis H37Rv [1]): demonstrated activity; MIC99 (M. tuberculosis H37Rv [2]; [7]): 6.25 µg/mL; MIC99 (M. tuberculosis H37Rv [2]; Mycobacterium tuberculosis, H37RV, read-out: Screen 2 MIC99): 6.25 µg/mL; MIC99 (M. tuberculosis H37Rv [2]; Mycobacterium tuberculosis, M. tuberculosis H37Rv, read-out: MIC99): 19 µM; IC50 (Vero cells; [8]): > 200 µg/mL; IC50 (Vero cells; Vero cells, read-out: IC50): > 200 µg/mL; IC50 (M. tuberculosis FtsZ [3]): 60 µM; inhibition at 100 µM (M. tuberculosis FtsZ [4]): 25%; IC50 (bovine tubulin): 4 µM
CCOC(=O)Nc1cc2c(c(N)n1)N=C(CN(C)c1ccccc1)CN2 [Compound A53] | 92 | 12.5 (≈ 35.3 µM) | 0.41 (≈ 1.16 µM) | –
CC(C)OC(=O)Nc1cc2c(c(N)n1)N=C(c1ccccc1)[C@H](C)N2 [Compound A11] | 99 | 12.5 (≈ 36.8 µM) | 1.51 (≈ 4.45 µM) | –
CC[C@@H](CO)NCCN[C@@H](CC)CO [Ethambutol, ethambutol, reference compound] | – | – | – | MIC (M. tuberculosis H37Ra): 2 µg/mL (≈ 9.79 µM)
CCOC(=O)Nc1cc(NC(C)C(O)COc2ccccc2)c(N)c(N)n1 (centres unmarked) [Compound A35] | 97 | 12.5 (≈ 33.3 µM) | > 1000 | –
CCOC(=O)Nc1cc2c(c(N)n1)N=C(c1ccc3c(c1)OCO3)[C@H](C)N2 [Compound A12] | 99 | 12.5 (≈ 33.8 µM) | 1.51 (≈ 4.09 µM) | –
CCOC(=O)Nc1cc(NCc2ccc(S(N)(=O)=O)cc2)c2nc(-c3ccccc3)c(-c3ccccc3)nc2n1 [Compound A33] | 97 | 0.39 (≈ 0.703 µM) | > 6.25 | –
CCOC(=O)Nc1cc(NC(C)CCCN(CC)CC)c2ncc(-c3ccc(C(F)(F)F)cc3)nc2n1 (centres unmarked) [Compound A23] | 98 | – | – | MIC (M. tuberculosis H37Rv [2]; [7]): 6.25 µg/mL (≈ 12.1 µM); IC50 (Vero cells): 1.6 µg/mL (≈ 3.09 µM)
CCOC(=O)Nc1cc2[nH]c(-c3ccccc3)nc2c(NC(c2ccccc2)c2ccccc2)n1 [Compound A52] | 92 | 12.5 (≈ 27 µM) | > 200 | –
CCOC(=O)Nc1cc2c(c(N)n1)N=C(c1ccc(OC)cc1)C(C)N2 (centres unmarked) [Compound A44] | 94 | 12.5 (≈ 35.2 µM) | 1.53 (≈ 4.31 µM) | –
CCOC(=O)Nc1cc(NC(C)CCCN(CC)CC)c2nc(-c3ccccc3)c(-c3ccccc3)nc2n1 (centres unmarked) [Compound A1] | 100 | – | 4.3 (≈ 8.16 µM) | MIC (M. tuberculosis H37Rv [2]; M. tuberculosis H37Rv, Table 8): 0.2 µg/mL (≈ 0.38 µM)
CCOC(=O)Nc1cc(NC(C)C(O)COc2ccccc2)c(N)c(N)n1 (centres unmarked) [SRI-7405, [5,6-Diamino-4-(2-hydroxy-1-methyl-3-phenoxy-propylamino)-pyridin-2-yl]-carbamic acid ethyl ester] | – | – | – | inhibition of growth at 12.5 µg/mL (M. tuberculosis H37Rv [1]): 97%; activity against M. tuberculosis H37Rv in the primary screen (M. tuberculosis H37Rv [1]): demonstrated activity; MIC99 (M. tuberculosis H37Rv [2]; [9]): 12.5 µg/mL; IC50 (Vero cells; [8]): > 1000 µg/mL
CCOC(=O)Nc1cc(NC(C)CCCN(CC)CC)c2nc(-c3ccccc3)c(-c3ccccc3)nc2n1.Cl (centres unmarked) [Compound A21] | 98 | 0.1 | – | IC50 (Vero cells): 8.3 µg/mL
CCOC(=O)Nc1cc2c(c(N)n1)N=C(c1ccccc1)C(c1ccccc1)O2 (centres unmarked) [Compound A55] | 90 | 6.25 (≈ 16.1 µM) | – | –

SMILES | % Inh (M. tuberculosis H37Rv [1]) [%] | MIC (M. tuberculosis H37Rv [2]; [5]) [µg/mL] | IC50 (Vero cells; [6]) [µg/mL] | also measured
CCOC(=O)Nc1cc(NC(C)CCCN(CC)CC)c2ncc(-c3ccccc3)nc2n1.Cl.Cl (centres unmarked) [Compound A37] | 96 | 12.5 | – | –
CCOC(=O)Nc1cc2c(c(N)n1)N=C(c1cc(OC)cc(OC)c1)[C@H](C)O2 [Compound A42] | 95 | 12.5 (≈ 32.3 µM) | – | –
CCOC(=O)Nc1cc2c(c(N)n1)N=C(c1ccccc1)[C@H](C)O2 [Compound A56] | 90 | 12.5 (≈ 38.3 µM) | – | –
CCOC(=O)Nc1cc2[nH]c(-c3ccc4c(c3)OCO4)nc2c(NC(c2ccccc2)c2ccccc2)n1 [Compound A39] | 95 | 1.56 (≈ 3.07 µM) | > 200 | –
CCOC(=O)Nc1cc2c(c(N)n1)N=C(c1ccccc1)C(C)(C)S2.Cl [Compound A40] | 95 | > 6.25 | – | –
CCOC(=O)Nc1cc(NCc2ccc(S(N)(=O)=O)cc2)c2nc(-c3ccccc3)c(-c3ccccc3)nc2n1 [Compound 4427-026-15, [2,3-Diphenyl-8-(4-sulfamoyl-benzylamino)-pyrido[2,3-b]pyrazin-6-yl]-carbamic acid ethyl ester] | – | – | – | inhibition of growth at 12.5 µg/mL (M. tuberculosis H37Rv [1]): 97%; activity against M. tuberculosis H37Rv in the primary screen (M. tuberculosis H37Rv [1]): demonstrated activity; MIC99 (M. tuberculosis H37Rv [2]; [9]): 0.39 µg/mL; IC50 (Vero cells; [8]): > 6.25 µg/mL
CCOC(=O)Nc1cc2c(c(N)n1)N=C(c1ccccc1)CCN2 [Compound A2] | 100 | 6.25 (≈ 19.2 µM) | > 200 | –
CCOC(=O)Nc1cc2c(c(N)n1)N=C(c1ccc(OCc3ccccc3)cc1)[C@H](C)N2 [Compound A8] | 99 | 6.25 (≈ 14.5 µM) | – | –
CCOC(=O)Nc1cc(NC(C)CCCN(CC)CC)c2nc(-c3ccc(Cl)cc3)cnc2n1.Cl.Cl (centres unmarked) [Compound A34] | 97 | 6.25 | – | IC50 (Vero cells): 2.28 µg/mL
CCOC(=O)Nc1cc(N)c(N)c(NC(C)C(O)c2ccccc2)n1 (centres unmarked) [Compound A10] | 99 | 12.5 (≈ 36.2 µM) | > 200 | –
CCOC(=O)Nc1cc(NC(C)CCCN(CC)CC)c2nc(-c3ccc([N+](=O)[O-])cc3)cnc2n1 (centres unmarked) [Compound A50] | 92 | – | – | MIC (M. tuberculosis H37Rv [2]; [7]): > 6.25 µg/mL
CCOC(=O)Nc1cc(NC(C)CCCN(CC)CC)c2ncc(-c3ccc(Cl)c(Cl)c3)nc2n1.Cl.Cl (centres unmarked) [Compound A7] | 99 | 3.13 | – | IC50 (Vero cells): 1.89 µg/mL
CCOC(=O)Nc1cc(NC(C)CCCN(CC)CC)c2ncc(-c3ccc(OC)cc3)nc2n1.Cl (centres unmarked) [Compound A22] | 98 | 1.56 | – | IC50 (Vero cells): 8.7 µg/mL
CCOC(=O)Nc1cc2[nH]c(-c3ccc(OC)cc3)nc2c(NC(c2ccccc2)c2ccccc2)n1 [Compound A46] | 93 | 3.13 (≈ 6.34 µM) | 189 (≈ 383 µM) | –
CCOC(=O)Nc1cc(NC(C)CCCN(CC)CC)c2nc(-c3ccc(F)cc3)cnc2n1 (centres unmarked) [Compound A25] | 98 | – | – | MIC (M. tuberculosis H37Rv [2]; [7]): 12.5 µg/mL (≈ 26.7 µM); IC50 (Vero cells): 6.8 µg/mL (≈ 14.5 µM)
CCOC(=O)Nc1cc(Nc2ccc(Cl)cc2)c2nccnc2n1 [Compound A43] | 94 | 6.25 (≈ 18.2 µM) | – | –
